SMILES | melting point [°C]
CCOC(=O)C1CC2CC(CP(=O)(O)O)CCC2CN1 (stereo not given) | 184 to 185
CC(C)(C)c1ccc(S(=O)(=O)N2c3ccccc3C[C@H]2C(=O)Cl)cc1 | 148
Cc1ncc([N+](=O)[O-])n1CCN(CCCC(C)N(CCn1c([N+](=O)[O-])cnc1C)CCn1c([N+](=O)[O-])cnc1C)CCn1c([N+](=O)[O-])cnc1C (stereo not given) | 150 to 151
O=c1ccc(-c2c(-c3ccccc3)nn3ccccc23)nn1C1CCNCC1 | 115 to 117
COc1ccc(C(=O)c2cc(C(=O)c3ccc(OC)cc3)cc(C(=O)c3ccc(OC)cc3)c2)cc1 | 179 to 183
O=C(Nc1cccc(-c2ccnc3c(C(=O)c4cccs4)cnn23)c1)OCc1ccccn1 | 121 to 125
Cc1oc(-c2ccccc2)nc1COc1ccc(CON=C(CCC(=O)O)c2ccco2)cc1 | 124 to 125
O=[N+]([O-])c1ccc(CN2CCN(c3ccc(F)cc3)CC2)cc1 | 139 to 141
Nc1c2c(=O)c3ccccc3c(=O)c2c(N)c2c(=O)n(CCCO)c(=O)c12 | 261 to 262
COC(=O)CN(C)C(=S)c1cccc2c(SC(F)(F)F)c(OC)ccc12 | 121 to 123
Cc1cccc(Nc2nc(Cl)nc(Cl)n2)c1C | 186 to 188
CC(C)c1cn2ccccc2c1S(=O)(=O)c1ccc(OCC2CO2)cc1 (stereo not given) | 110 to 111
CS(=O)(=O)c1ccc(-c2cccn2-c2ccc(Cl)cc2)cc1 | 184 to 188
COC(=O)c1ccc(Cl)nc1C1=NC(=O)C(C)(C(C)C)N1 (stereo not given) | 102 to 104
NC(=O)c1c[nH]c2cc(Cl)c([N+](=O)[O-])cc2c1=O | 298 to 300
Fc1cc(-c2ccc3nnn(Cc4ccc5ncccc5c4)c3n2)ccc1OC1CCOCC1 | 165 to 167
COc1cccc(CN(CCC(=O)O)c2nc(NC(=O)Nc3ccccc3OC)nc(Oc3ccc4ccccc4c3)n2)c1 | 189 to 194
COC(=O)c1cccnc1NS(=O)(=O)NC(C)C | 121 to 123
COc1ccc(OC)c(CC(=O)CN2N=C(c3ccc(Cl)cc3)c3ccccc3-n3c(C)nnc32)c1 | 217 to 218
CN1CCN(Cc2ccc3n2Cc2ccccc2SC3c2ccccc2)CC1 (stereo not given) | 161 to 162
O=C(CCl)NCC1OCCO1 | 61 to 63
COC(=O)[C@@H]1CCCN1c1ccc(C)c([N+](=O)[O-])c1O | 111 to 114

SMILES | melting point [°C]
CCCc1nn(-c2ccc(C(F)(F)F)cn2)cc1CCCOc1cc(CCC(=O)O)ccc1OC | 147 to 148
Cn1c(-c2cc(C(C)(C)C)c(O)c(C(C)(C)C)c2)n[nH]c1=O | 308 to 312
CCOC(=O)C1Cc2ccccc2N1C(=O)c1c(O)c2cc(OC)cc3c2n(c1=O)CCO3 (stereo not given) | 135 to 138
O=C(CNc1ccccc1)Nc1c(Cl)ccc2nc(N3CC[C@@H](O)C3)ccc12 | 230 to 232
c1ccc(-c2ccc(-n3c4ccccc4c4c3ccc3c5ccccc5n(-c5ccc(-c6ccccc6)cc5)c34)cc2)cc1 | 315
Cc1cc(-c2ccc(C(F)(F)F)cc2)cn2c(-c3nc(-c4cccc(S(N)(=O)=O)c4)no3)cnc12 | 326
O=C(O)/C=C/C=C/C=C/C1=Cc2ccccc2OC1 | 206 to 208
c1ccc(CON=C2CC(=NOCc3ccccc3)c3ccccc3-c3ccccc32)cc1 | 112
COc1ccc2c(c1)CCC1C2CCC2(C)C(NCc3ccccc3)CCC12 (stereo not given) | 102 to 104
CC(=O)OC1CSC(Oc2cccc(-c3cccs3)c2)C(OC(C)=O)C1OC(C)=O (stereo not given) | 122 to 123
CNC(=O)NC(=O)C(CC1CCCC1)c1ccc(-c2cccc3ccccc23)cc1 (stereo not given) | 85 to 88
Cc1cc(C)c2c(-c3coc4cc(C)cc(C)c34)coc2c1 | 98 to 100
CCCCCCCc1ccc(C(=O)Oc2ccc(C(=O)O)c(Cl)c2)cc1 | 108
O=C(Nc1ccc2ccc(Cl)nc2n1)c1cnccn1 | 308
C=CCCCCNC(=O)c1cnc(OCC(O)CNC(C)(C)C)s1 (stereo not given) | 80 to 81
CCOP(=O)(OCC)OC(=Cc1nccn1C)C(F)(F)F | 54 to 64
Cn1nc2c3c(c(Cl)ccc31)C(=O)c1cnccc1-2 | 244 to 245
CCOP(=O)(COCC(O)COn1cnc2c(N)ncnc21)OCC (stereo not given) | 84 to 85
CC(=O)OCCc1c(C2=CCC(c3ccccc3)(N(C)C)CC2)[nH]c2ccccc12 (stereo not given) | 146 to 148
COC(=O)C1CCN(CCc2ccc(OC)cc2)CC1 | 66 to 68
O=C(Nc1ccncc1)OC1CN2CCC1CC2 (stereo not given) | 149 to 151
O=C1NC(CCO)CO1 (stereo not given) | 90 to 91

SMILES | melting point [°C]
O=C(O)C1CCCC(C(=O)O)C1 (stereo not given) | 163 to 165
Clc1cc(Cl)c2cccc3c2c1N=C3NCCCCCn1ccnc1 | 191 to 192
CNC(=O)c1cc(C)ccc1Nc1nc(Nc2ccc3c(c2)CCN(CCOC)CC3)ncc1Cl | 210 to 212
O=C1CCCCCCCCCCC(O)CCCO1 (stereo not given) | 59 to 61
COC(=O)c1ccccc1S(=O)(=O)NC(=O)Nc1nc(OC)nc(C2CC2)n1 | 166 to 168
CCn1cc(C(=O)NCc2ccc(Cl)cc2)c(=O)c2cc(CCl)sc21 | 199 to 200
CCCCCCCCCCOc1c(Br)sc(-c2nc3ccccc3s2)c1OCCCCCCCCCC | 42 to 43
CCOC(=O)COc1ccc(C(=O)Nc2cc(OC)ccc2Sc2ccccc2-c2nnn[nH]2)cc1 | 195 to 197
CCCCOc1nc(N)c2[nH]c(=O)n(CCCCN(CCN3CCOCC3)Cc3cccc(CC(=O)OC)c3)c2n1 | 189 to 190
CC(C)(OC(=O)NC(Cc1c[nH]c2ccccc12)C(=O)NC(Cc1ccccc1)C(N)=O)C(Cl)(Cl)Cl (stereo not given) | 187
CCCCc1oc2ccc(-c3nc(C)no3)cc2c1C(=O)c1ccc(O)cc1 | 180 to 182
CCCc1c(SCCCOc2ccc(C(C)=O)c(OCCCC(=O)O)c2CCC)ccc(C(C)=O)c1O | 79 to 81
COC(=O)c1ccc(OCc2cccc(OCc3ccc4ccccc4n3)c2)c(OC)c1 | 100 to 101
Cn1c(=O)c([N+](=O)[O-])c(N2CCN(C(=O)c3cccs3)CC2)c2ccccc21 | 105
Cc1cc(NCc2ccc(Oc3ccc4ncc([N+](=O)[O-])n4n3)c(OCC3CC3)c2)nc(C)n1 | 113 to 118
CN(C)C1CCc2[nH]c3ccc(O)cc3c2C1 (stereo not given) | 202 to 204
Cc1cc(C)n(-c2nc(Nc3ccccn3)c3ccccc3n2)n1 | 126 to 127
CCOC(=O)C1[C@@H]2[C@@H](O)[C@@H]3O[C@H](c4ccc(C(C)(C)C)cc4)OC[C@H]3O[C@H]12 (stereo not given in full) | 113 to 116
COC(=O)c1ccc(CC(C)NCC(O)c2ccccc2)cc1 (stereo not given) | 82 to 84
Cc1oc(-c2ccccc2)nc1CCc1noc(COc2ccccc2CC(=O)O)n1 | 120 to 121
C=CCN(CCC12CC3CC(CC(C3)C1)C2)C(=O)NCCCc1ccncc1 | 99 to 102
COc1cc2c(cc1OC)-c1cc(=O)[nH]c(=O)n1CC2 | 323 to 325

More lines, now with the values ahead:

melting point [°C] | SMILES
150 | CN(C)C(=O)Sc1ccc(C(=O)c2cccc(C#N)c2)cc1
90 to 96 | COCCN(C)c1cc2ncc(C#N)c(C)c2cc1OC
152 to 154 | C/C(=C\CCl)n1ncc(-c2ccc(S(N)(=O)=O)cc2)c(-c2ccc(F)cc2)c1=O
188 to 189 | CC(C)(C)c1ccc(C(N)=O)c(NC(=O)Nc2cccnc2)c1
184 to 193 | Nc1ccc2c(c1)COc1cc(Nc3ccc(F)cc3F)ccc1C2=O
85 to 86 | N#Cc1nc(-c2ccc(OCCN3CCCCC3)cc2)cs1
137 to 140 | CCN(CC)C(C)COc1ccccc1C(=O)O (stereo not given)
206 to 207 | COc1ccc(Cl)cc1-n1c(-c2cc(C(F)(F)F)cc(C(F)(F)F)c2)n[nH]c1=O
62 to 64 | CCOC(=O)c1cc2ccccc2n1C
120 to 121 | CCOC(=O)c1cccc(-n2c(C)nc3cnccc32)c1
300 to 301 | CCOC(=O)c1cn(CC)c2nc3cc(Cl)c(F)cc3cc2c1=O
52 | N#CC(N)c1ccc(F)cc1F (stereo not given)
177 to 180 | Cc1nn(C)cc1C(=O)Nc1ccccc1-c1ccc(F)c(Cl)c1
182 | CSc1ccc2c(=O)c(OS(C)(=O)=O)cn(C)c2c1
51.4 to 53.4 | CC(C)(C)C(=O)Nc1ccc(Cl)cn1
151 to 153 | Cc1ccccc1-n1cnc(OC(C)C(=O)O)n1 (stereo not given)
185 to 186 | Cn1ccc(=O)c(CO)c1

melting point [°C] | SMILES
186 to 188 | c1coc(-c2cc3[nH]ccn3n2)c1
229 to 230 | N#Cc1cc2cc(O)c(O)cc2s1
222 to 224 | CC(C)C(=O)NCCCCn1c(CO)nc2c(N)nc3ccccc3c21
264 to 266 | O=[N+]([O-])c1cc(C(F)(F)F)ccc1Sc1nc(-c2ccc(Cl)cc2)c(-c2ccc(Cl)cc2)[nH]1
213 to 225 | CCCSNc1ccc(N)cc1
94 | CC(C)(C)OC(=O)C(Nc1ccccc1)c1ccc(Cl)c(Cl)c1 (racemic)
194 to 196 | CCOC(=O)c1nc(-c2ccc([N+](=O)[O-])cc2)[nH]c1-c1cccc(OC)c1
84 to 86 | Clc1nc2ccccc2cc1C=C1CCCC1
80 to 81 | CC(C)C(c1cncnc1C#N)N(C)C(=O)Cc1ccccc1 (stereo not given)
136 to 139 | COc1ccc(-c2nsc(SN)n2)cc1
208 | Nc1cncnc1NCCN1CCC(Nc2nc3ccccc3n2Cc2ccc(F)cc2)CC1
280 to 282 | C=Cn1cc(C(=O)OCC)c(=O)c2cc(F)c(N3CCC(NC(=O)C(F)(F)F)C3)nc21 (stereo not given)
78 to 79 | COc1ccc2cc3c(Cl)nn(CC(C)N(C)C)c3nc2c1 (stereo not given)
138 | Cc1cc(C)c(-c2csc(N)n2)c(C)c1
96 | C[C@@H](C(=O)O)N(C)C(=O)c1cc(C(F)(F)F)cc(N)c1N
180 to 182 | CN1CCC(c2c[nH]c3ccc(OS(=O)(=O)c4ccccc4F)cc23)CC1
153 to 154 | COc1ccc(S(=O)(=O)Nc2ccc(F)cc2NC(=O)c2ccccc2)cc1
